# In US20130217721A1, “COMPOSITIONS AND METHODS FOR DETECTION AND TREATMENT OF B-RAF INHIBITOR-RESISTANT MELANOMAS” (The Regents of the University of California, priority 2010, published 2013):
# “And” between values parts separate entries of the source, which are not always exact repeats. Equal entries are not always repeated. “Also recorded” adds a separate entry of the source.
# Columns and labels:
# p61 BRAF(V600E/R509H) = p61 BRAF(V600E/R509H) (Homo sapiens, UniProt P15056, DEL169-380/R509H/V600E); assay: ERK signaling in 293H cells expressing p61 BRAF(V600E/R509H); format: cell-based; settings: 2 μM PLX4032 for 1 hour
# Description: (§1) FIGS. 6A-6E. […] FIG. 6A. PCR analysis of BRAF in cDNA from parental (P) and C3 cells. Primers were designed at the N-terminus and C-terminus of BRAF. […] Abbreviations: CR1: Conserved Region 1, CR2: Conserved Region 2, CR3: Conserved Region 3, RBD: RAS-binding domain, CRD: Cystine-Rich Domain, AS: Activation Segment, KD: Kinase Domain. FIG. 6B. Full length wild-type BRAF and the 1.7 kb/61 kd splice variant of BRAF(V600E) were cloned into a pcDNA3.1 vector with a FLAG tag at the C-terminus and expressed in 293H cells. The effect of PLX4032 (2 μM for 1 hour) on ERK signaling in the presence of p61 BRAF(V600E) was analyzed by western blot for pMEK and pERK. FIG. 6C. To compare levels of dimerization, 293H cells co-expressing FLAG tagged and V5-tagged p61 BRAF(V600E), full length BRAF(V600E) and the corresponding dimerization-deficient mutants p61 BRAF(V600E/R509H) and BRAF(V600E/R509H) were lysed followed by immunoprecipitation with FLAG antibody. Western blots with V5 or FLAG antibodies were performed as indicated. FIG. 6D. Comparison of MEK/ERK activation and sensitivity of ERK signaling to PLX4032 (2 μM for 1 hour) in 293H cells expressing either Flag-tagged BRAF(V600E) or the dimerization mutant Flag-tagged BRAF(V600E/R509H). FIG. 6E. […]
# [1] = system: Pt55 R short-term culture; assay: Cell survival / proliferation assay (72 h); format: cell-based, human
# Protocol: (§2) Cells were maintained in Dulbecco's modified Eagle medium (DMEM) with 10 or 20% fetal bovine serum and glutamine. shRNAs were sub-cloned into the lentiviral vector pLL3.7 and infections carried out with protamine sulphate. Stocks of PLX4032 (Plexxikon) and AZD6244 (commercially available) were made in DMSO. Cells were quantified using CellTiter-GLO Luminescence (Promega).
# (§3) Cell proliferation experiments were performed in a 96-well format (five replicates), and baseline quantification performed at 24 h after cell seeding along with initiation of drug treatments (72 h). Stocks and dilutions of PLX4032 (Plexxikon), AZD6244 (Selleck Chemicals) and U0126 (Promega) were made in DMSO. siRNA pool (Dharmacon) transfections were carried out in 384-well format. TransIT transfection reagent (Mirus) was added to each well and incubated at 37° C. for 20 min. Subsequently, cells were reverse transfected, and the mixture was incubated for 51-61 h at 37° C. Cells were quantified using CellTiter 96 Aqueous One Solution (Promega) or CellTiter-GLO Luminescence (Promega) following the manufacturer's recommendations.
# [2] = system: M229 R sub-lines (M229 R5); assay: Cell survival / proliferation assay (72 h); format: cell-based, human; settings: M229 R sub-lines
# Protocol: as §2, §3
# [3] = system: Pt48 R short-term culture; assay: Cell survival / proliferation assay (72 h); format: cell-based, human
# Protocol: as §2, §3
# [4] = system: M238 R sub-lines (M238 R1); assay: Cell survival / proliferation assay (72 h); format: cell-based, human; settings: M238 R sub-lines
# Protocol: as §2, §3
# p61 BRAF(V600E) = p61 BRAF(V600E) (Homo sapiens, UniProt P15056, DEL169-380/V600E); assay: ERK signaling in cells ectopically expressing p61 BRAF(V600E); format: cell-based
# Description: FIGS. 6A-6E. […] FIG. 6A. PCR analysis of BRAF in cDNA from parental (P) and C3 cells. Primers were designed at the N-terminus and C-terminus of BRAF. […] Abbreviations: CR1: Conserved Region 1, CR2: Conserved Region 2, CR3: Conserved Region 3, RBD: RAS-binding domain, CRD: Cystine-Rich Domain, AS: Activation Segment, KD: Kinase Domain. FIG. 6B. Full length wild-type BRAF and the 1.7 kb/61 kd splice variant of BRAF(V600E) were cloned into a pcDNA3.1 vector with a FLAG tag at the C-terminus and expressed in 293H cells. The effect of PLX4032 (2 μM for 1 hour) on ERK signaling in the presence of p61 BRAF(V600E) was analyzed by western blot for pMEK and pERK. FIG. 6C. To compare levels of dimerization, 293H cells co-expressing FLAG tagged and V5-tagged p61 BRAF(V600E), full length BRAF(V600E) and the corresponding dimerization-deficient mutants p61 BRAF(V600E/R509H) and BRAF(V600E/R509H) were lysed followed by immunoprecipitation with FLAG antibody. Western blots with V5 or FLAG antibodies were performed as indicated. FIG. 6D. Comparison of MEK/ERK activation and sensitivity of ERK signaling to PLX4032 (2 μM for 1 hour) in 293H cells expressing either Flag-tagged BRAF(V600E) or the dimerization mutant Flag-tagged BRAF(V600E/R509H). FIG. 6E. Constructs expressing V5-tagged BRAF(V600E), p61 BRAF(V600E) or the dimerization mutant p61 BRAF(V600E/R509H) were transfected into 293H cells and treated with DMSO or 2 μM PLX4032 for 1 hour.
# Plasmids/Trasfections. Flag-tagged BRAF constructs have been described previously^4. All other plasmids were created using standard cloning methods, with pcDNA3.1 (Invitrogen) as a vector. Mutations were introduced using the site-directed Mutagenesis Kit (Stratagene). For transfection studies, cells were seeded at 35 mm or 100 mm plates and transfected the following day using Lipofectamine 2000 (Invitrogen). Cells were collected 24 hours later for subsequent analysis.
# melanoma = assay: PLX4032 clinical trial patients: best overall response and progression free survival (Table 2); format: in vivo, human; settings: individual PLX4032 clinical trial patient
# [5] = system: ERK signaling (pMEK, pERK); assay: Western blot of ERK signaling (pMEK, pERK) in SKMEL-239 parental cells and resistant clones
# Protocol: PLX4032 IC50 curves (at 5 days) for the SKMEL-239 parental cell line and five PLX4032-resistant clones. […] Western blot for components of the ERK and AKT signaling pathways in parental and resistant clones (2 μM PLX4032/24 hours). […] Dose-response of pMEK and pERK downregulation at 1 hour to increasing concentrations of PLX4032 in parental and two representative resistant clones (C3 and C5). […] Graphic representation of the chemiluminescent signal intensities from 5D and determination of IC50s for inhibition of MEK phosphorylation by PLX4032 in the parental and C3 and C5 clones.
# Western blotting and receptor tyrosine kinase (RTK) arrays. […] The following antibodies were used: p217/p221-MEK (pMEK), p202/p204-ERK (pERK), MEK, ERK, (Cell Signaling), V5 tag (Invitrogen), BRAF, cyclin Flag tag, β-actin (Sigma). […] Membranes were exposed to chemiluminescent reagents and images captured using the ImageQuant LAS 4000 instrument (GE HealthCare).
# BRAF(V600E/R509H) = BRAF(V600E/R509H) (Homo sapiens, UniProt P15056, R509H/V600E); assay: ERK signaling in 293H cells expressing BRAF(V600E/R509H); format: cell-based; settings: 2 μM PLX4032 for 1 hour
# Description: as §1
# pERK levels in M395 R = assay: Western blot of pERK after acute vemurafenib titration; format: cell-based, human; settings: vemurafenib titration 1 h after a 24 h drug withdrawal
# B-RAF(V600E) kinase = B-RAF(V600E) kinase (Homo sapiens, UniProt P15056, V600E); assay: In vitro kinase assay of immunoprecipitated B-RAF; format: biochemical; settings: from resistant sub-lines and short-term cultures compared with parental cell lines; 1 μM PLX4032, 30 min at 30° C.
# Description: Cells were harvested and protein lysates prepared in a NP40-based buffer before subjected to immunoprecipitation (IP). […] The beads were subsequently pelleted and the supernatant resuspended in sample buffer for western blotting to detect p-MEK and total MEK.
# [6] = Homo sapiens, not reached up to 10 μM, read-out: GI50, concentration of drug that inhibits growth of cells by 50%
# Chain of p61 BRAF(V600E) (P15056 with tags, fused parts or gaps DEL169-380/V600E): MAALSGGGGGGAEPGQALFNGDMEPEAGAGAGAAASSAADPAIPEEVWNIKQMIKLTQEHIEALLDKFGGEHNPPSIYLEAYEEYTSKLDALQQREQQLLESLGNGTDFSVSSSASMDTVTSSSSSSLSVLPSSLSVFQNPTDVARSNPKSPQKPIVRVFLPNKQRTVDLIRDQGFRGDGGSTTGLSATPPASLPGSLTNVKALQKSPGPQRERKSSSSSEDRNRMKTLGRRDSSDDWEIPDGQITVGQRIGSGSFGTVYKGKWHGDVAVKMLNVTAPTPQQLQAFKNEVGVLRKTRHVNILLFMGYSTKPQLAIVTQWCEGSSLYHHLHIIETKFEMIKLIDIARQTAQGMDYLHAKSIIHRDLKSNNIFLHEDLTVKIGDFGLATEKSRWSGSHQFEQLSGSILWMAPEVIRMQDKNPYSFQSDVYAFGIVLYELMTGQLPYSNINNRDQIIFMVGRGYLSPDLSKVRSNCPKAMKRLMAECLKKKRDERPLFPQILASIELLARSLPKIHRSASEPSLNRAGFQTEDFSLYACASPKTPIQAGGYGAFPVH
# Chain of B-RAF(V600E) kinase (P15056 whole entry V600E): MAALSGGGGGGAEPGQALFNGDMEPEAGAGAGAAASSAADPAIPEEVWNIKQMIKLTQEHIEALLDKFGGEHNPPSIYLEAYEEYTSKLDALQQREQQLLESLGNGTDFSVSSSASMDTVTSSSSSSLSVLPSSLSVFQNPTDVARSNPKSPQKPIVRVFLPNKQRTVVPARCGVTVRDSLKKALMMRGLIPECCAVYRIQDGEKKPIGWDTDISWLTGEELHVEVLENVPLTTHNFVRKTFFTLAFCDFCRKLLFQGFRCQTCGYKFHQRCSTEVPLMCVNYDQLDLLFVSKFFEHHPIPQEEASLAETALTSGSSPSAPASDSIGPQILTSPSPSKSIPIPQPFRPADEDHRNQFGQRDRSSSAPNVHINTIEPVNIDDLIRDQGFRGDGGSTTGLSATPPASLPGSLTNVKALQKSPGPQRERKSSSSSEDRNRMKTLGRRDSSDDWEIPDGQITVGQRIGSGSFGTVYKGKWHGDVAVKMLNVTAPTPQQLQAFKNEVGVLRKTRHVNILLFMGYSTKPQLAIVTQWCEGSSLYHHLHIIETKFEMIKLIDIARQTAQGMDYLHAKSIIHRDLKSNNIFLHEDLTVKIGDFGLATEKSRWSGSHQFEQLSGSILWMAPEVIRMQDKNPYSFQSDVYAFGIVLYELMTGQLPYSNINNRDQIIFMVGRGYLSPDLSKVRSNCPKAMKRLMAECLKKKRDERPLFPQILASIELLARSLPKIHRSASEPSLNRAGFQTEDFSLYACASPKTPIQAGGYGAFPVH
# Chain of p61 BRAF(V600E/R509H) (P15056 with tags, fused parts or gaps DEL169-380/R509H/V600E): as the sequence (P15056 with tags, fused parts or gaps DEL169-380/V600E) above, with R297H counted along it
# Chain of BRAF(V600E/R509H) (P15056 whole entry R509H/V600E): as the sequence (P15056 whole entry V600E) above, with R509H counted along it
compound,measurement,setting,value
CCCS(=O)(=O)Nc1ccc(F)c(C(=O)c2c[nH]c3ncc(-c4ccc(Cl)cc4)cc23)c1F [PLX4032],ERK signaling,p61 BRAF(V600E/R509H),inhibited
same,growth resistance to B-RAF inhibitor,[1],resistance
same,GI50,[2]; [6],> 10 µM
same,growth at low PLX4032 concentrations,[2]; in contrast to parental cells,paradoxically enhanced growth
same,growth resistance to B-RAF inhibitor,[3],resistance
same,GI50,[4]; [6],> 10 µM
same,growth at low PLX4032 concentrations,[4]; in contrast to parental cells,paradoxically enhanced growth
same,"sensitivity of ERK signaling (pMEK, pERK)","p61 BRAF(V600E); 293H cells, 2 μM PLX4032 for 1 hour",resistant; also recorded: insensitive
same,inhibition of ERK signaling,p61 BRAF(V600E); HT-29 (BRAF(V600E)) colorectal carcinoma cells expressing p61 BRAF(V600E),failure of PLX4032 to effectively inhibit ERK signaling
same,inhibition of ERK signaling,p61 BRAF(V600E); parental SKMEL-239 cells expressing p61 BRAF(V600E),failure of PLX4032 to effectively inhibit ERK signaling
same,Best overall response,melanoma,83% and 14% and 37% and 53% (2×) and 73% and 84% and 32% and 42% and 24% and 57% and 75%
same,Progression free survival,melanoma,161 days and 113 days (2×) and 270 days and 106 days and 141 days and 149 days and 137 days and 126 days (2×) and 466 days and 84 days
same,sensitivity of ERK signaling to the drug,[5]; PLX4032-resistant SKMEL-239 clones,decreased sensitivity
same,IC50 for pMEK inhibition relative to the parental cell line,"[5]; SKMEL-239 C3 clone, 1 hour",more than 100 fold
same,pMEK IC50 relative to the parental cell line,"[5]; SKMEL-239 C5 clone, 1 hour",4.5 fold
same,inhibition of ERK signaling,"[5]; SKMEL-239 parental, 2 μM PLX4032",effectively inhibits
same,sensitivity of ERK signaling,BRAF(V600E/R509H),remained sensitive
same,"pERK levels, sensitivity to acute V600EB-RAF inhibition",pERK levels in M395 R,highly resistant
same,sensitivity of immunoprecipitated B-RAF kinase activities,B-RAF(V600E) kinase,similarly sensitive
